How the values were obtained:
[1] = tested on: HCC4017 T5; experiment: MTS cell viability assay, HCC4017 T5 resistant variant vs parental; assay type: cell-based, human; settings: HCC4017 T5 vs parental
Description: (§1) NSCLC lines were treated with paclitaxel+carboplatin combination, given in a ˜2:3 wt/wt ratio, to mirror the clinical dosage values of ˜225 mg/m2 and ˜330 mg/m2, paclitaxel and carboplatin respectively. Note that considering the molecular weights of the two drugs, this translates to approximately a 1 to 3.4 molar ratio. Drugs were given in cycles, following a drug on/drug off treatment scheme. Each cycle consisted of 4-5 days of drug treatment and drug-free culturing for about 1-2 weeks or more to allow the surviving cells to repopulate the plate. […] Untreated parental cells were simultaneously maintained at all times for comparison. Cell viability was assessed in 96-well plates using standard MTS assays (Promega). Treatment duration in MTS assays was 4 days. Drugs were tested in two- or four-fold serial dilutions, totaling 8 different drug concentrations, with 8 replicates per concentration. Response was validated in multiple replicate plates (n≥3).
(§2) Cell viability was assessed by standard MTS assays using Promega's CellTiter reagents. Eight drug concentrations given as two- or four-fold dilutions were tested for each chemotherapeutic agent. In addition, each experiment contained eight replicates per concentration and the entire assay was performed in multiple replicates (n≥3).

[2] = tested on: H1693 T8; experiment: MTS cell viability assay, H1693 T8 resistant variant vs parental; assay type: cell-based, human; settings: H1693 T8 vs parental
Description: as §1, §2

[3] = tested on: radioresistant (HCC95, HCC1195 and HCC2279) NSCLC cell lines; experiment: Clonogenic survival with IR, radioresistant NSCLC lines; assay type: cell-based, Human; settings: all radioresistant NSCLC lines tested
Description: (§3) Cells were serially diluted to appropriate concentrations and plated into 60-mm dish in triplicate for 4 h. Then cells were treated with the indicated drugs, and irradiated 4 hours later with graded doses of radiation for concurrent treatment or irradiated and 4 hours later the drugs added for post-treatment. All cells were irradiated at room temperature in ambient air using a 137Cs source (Mark 1-68 irradiator, JL Shepherd & Associated). Surviving colonies were stained with crystal violet approximately 10 to 14 days later and colonies formed with more than 50 cells were counted. Clonogenic fraction of irradiated cells was normalized to the plating efficiency of unirradiated controls. The data are presented as the mean±SD. The curve S=e^−(αD+βD2) was fitted to the experimental data using a least square fit algorithm using the program Sigma Plot 11.0 (Systat Software, Inc.).

[4] = tested on: radiosensitive (HCC1719, H23, H1650, H1395 and H2228) NSCLC cell lines; experiment: Clonogenic survival with IR, radiosensitive NSCLC lines; assay type: cell-based, Human
Description: as §3

[5] = tested on: H1299 NSCLC xenografts; experiment: Tumor growth delay with JIB-04 and IR, H1299 xenografts; assay type: in vivo, mice; settings: JIB-04 50 mg/kg oral gavage, IR 2 Gy 4 h after drug, every other day, 12 doses
Description: H1299 NSCLC cells were injected subcutaneously (5×10^6 cells in 100 μL) into the right posterior leg of female athymic nude mice (nu/nu, 5-6 weeks old). Treatment was initiated when the subcutaneous tumors reached an average size of 150 to 200 mm^3. Mice were treated with JIB-04 (50 mg/kg/day) by oral gavage or with vehicle (12.5% Cremophor EL, 12.5% DMSO as an aqueous suspension) as control; radiation was administered 4 hours after treatment. The treatment regimen consisted of a total of 12 doses of drug and/or ionizing radiation given every other day. Tumor growth delay and the dose enhancement factor were then determined. Body weight and general health were monitored every other day during the drug-treatment period and afterward. Standard survival criteria was applied to ensure animals including severe lethargy, 20% weight loss, tumor burden >2,000 mm^3 and difficulty breathing. Survival data was analyzed using GraphPad Prism software.

[6] = tested on: γH2AX foci; experiment: Immunofluorescence DSB repair kinetics, γH2AX foci; assay type: cell-based, Human
Description: (§4) NSCLCs were seeded onto Lab-Tek II Chamber Slides (Thermo Fisher) and 24 hours later pretreated with JIB-04 or DMSO for 4 h. Then cells were exposed to a total dose of 2 Gy (γH2AX and 53BP1) or 10 Gy (RAD-51 and DNAPKcs p-T2609) radiation. For knockdown and overexpression experiments H1299 cells were transfected using the Amaxa Nucleofector; program X-005. Specifically, 3×10^6 were transfected with siRNA duplexes targeting JMJD2A, JMJD2B, Jarid1A, Jarid1b, scrambled siRNA (250 nM final concentration) or expression vectors pCMVHA-JMJD2A, pCMVHA-JMJD2B, pCMVHA-Jarid1A, pCMVHA-Jarid1B, PC-2 for 72 hours, followed by quantification of expression or irradiation. Then, cells were fixed in 4% formaldehyde/PBS for 15 min, permeabilized with 0.5% Triton X-100 for 15 min on ice, and blocked with 5% bovine serum albumin in PBS for 1 h. The slides were incubated with an antibody against phospho-Histone γH2AX (1:1000, 3 h at room temperature), 53BP1 (1:500, 3 h at room temperature), Rad-51 (1:500, 48 hs 4° C.) or DNAPKcs p-T2609 (1:500, 48 hs 4° C.). Alexa Fluor 488-conjugated goat anti-Rabbit, […] goat anti-mouse or rhodamine red-conjugated goat anti-mouse secondaries antibodies were used (1:1000, 1 h at room temperature). Slides were mounted in a Vectashield mounting medium containing 4′,6-diamidino-2-phenylindole (DAPI). Cells were analyzed on a Zeiss upright fluorescent microscope.

[7] = tested on: homologous recombination (HR); experiment: Green fluorescent protein HR reporter assay, H1299; assay type: cell-based, Human; settings: H1299 cells with integrated construct
Description: The green fluorescent protein assay was performed as described by Seluanov et al. To generate reporter cell lines 2 million H1299 cells were transfected with 0.5 μg of linearized NHEJ-I, or HR reporter constructs using the Amaxa Nucleofector; program X-005. G418, at 1 mg/ml, was added to the media 1 day post-transfection. Then Transient expression of the I-SceI endonuclease was used to generate a DNA DSB at the integrated GFP gene sequences. Briefly, H1299 cells containing the NHEJ or the HR constructs treated by 4 h with JIB-04 or DMSO were transfected with the pCMV3xnls-I-SceI (5 μg, functional endonuclease) and a pN1-mCherry plasmid (0.05 μg) as transfection control as previously stated. For the analysis of NHEJ and HR cells were harvested, resuspended in ˜1 ml 1×PBS, put on ice, and run on a BD FACScan instrument. GFP and mCherry fluorescence was analyzed using FlowJo software. Red-versus-green was plotted and DNA repair efficiency was calculated from the number of GFP-positive cells divided by the number of cells mCherry-positive cells.

[8] = tested on: RAD51; experiment: RAD-51 foci kinetics after IR; assay type: cell-based, Human; settings: JIB-04 25 nM 4 h, 10 Gy
Description: as §4, with “Slides were mounted in a Vectashield mounting medium containing 4′,6-diamidino-2-phenylindole (DAPI).” left out

Row | SMILES | fold increased sensitivity vs parental [1] | fold increased sensitivity vs parental [2] | survival fraction at 2 Gy of radiation (SF2) [3] | survival fraction at 2 Gy of radiation (SF2) [4] | survival of tumor bearing mice, JIB-04 with IR [5] | tumor growth, JIB-04 with IR [5] | γH2AX foci remaining unresolved at late time points ([6]; H1299 and A549, 4 h pretreatment with colony formation IC50 dose, then IR) | γH2AX foci formation and resolution ([6]; normal HBEC30KT cells, 500 nM JIB-04, 2 Gy) | γH2AX foci resolution ([6]; prostate cancer cell line LNCap, JIB-04 and IR, data not shown) | HR repair efficiency [7] | RAD51 foci resolution [8] | RAD51 recruitment (foci formation) [8] | defects in γH2AX foci resolution ([6]; H1299 and A549, 4 h pretreatment, then IR)
1 | Clc1ccc(N/N=C(\c2ccccc2)c2ccccn2)nc1 [JIB-04] | ~3 fold | ~3 fold | decreasing the survival fraction at 2 Gy of radiation (SF2) | not affecting already radiosensitive lines | survived significantly longer | synergistic robust inhibition of tumor growth | > 30% | no defects | defects in γH2AX foci resolution | ≤ 50 % of normal levels | impaired foci resolution | significantly diminished RAD51 recruitment | –
2 | CCOC(=O)CCNc1cc(N2CCc3ccccc3CC2)nc(-c2ccccn2)n1 [GSK-J4] | – | – | – | – | – | – | – | – | – | – | – | – | not observed

— patent US11497740B2, “Use of Jumonji C demethylase inhibitors for the treatment and prevention of chemotherapy resistance and radioresistance in cancer” (THE BOARD OF REGENTS OF THE UNIVERSITY OF TEXAS SYSTEM, priority 2016, dated 2022)
